Results from patent US10952940B2, “Reagents and methods for mineralization of tooth enamel” (UNIVERSITY OF WASHINGTON, priority 2016, dated 2021).

Legend:
[1] = Vicker's microhardness of mineralized tooth surface; set-up: species or system human; details: 10 kg applied load, on the surface, n ≥ 20
Description: In addition to nanoindenation measurements, microhardness was also performed on the surface to quantitatively assess the mechanical properties of the mineral layers with larger areas and volumes including the underlying enamel as a composite. Vicker's microhardness was performed on at room temperature using Vicker's indenter on a Wilson Hardness Tukon 1202 microhardness tester at 10 kg applied load (Illinois Tool Works, Lake Bluff, Ill.). At least 20 measurements per group were recorded for obtaining an average and statistical analysis.
Microhardness and nanoindentation differ in both loading range and measurement method as shown in the schematic in FIG. 14 and, for these reasons, both were used in the present work to assess the mechanical durability of the remineralized layers on artificially formed lesions on intact human teeth. In the case of microhardness (Vickers indenter), the measurement was a static one in that the load was applied, released and hardness was obtained by measuring the post-indentation projected area of the indented region (foot print). This method therefore provides information about only the plastically deformed response (plastic deformation) of the material. Furthermore the load applied in this study was 10 kg, lowest allowable by the instrument.

[2] = Solution mineralization approach on tetracycline-stained teeth, Mean Pixel Intensity; set-up: species or system human; details: repeated rounds of remineralization
Source text: Human teeth, donated by the University of Washington School of Dentistry (Seattle, Wash., USA), were selected for their clean, smooth surfaces. The teeth were sterilized in bleach, cut on a diamond blade to remove the root, and halved. A thin layer of the enamel surface was then cut on one of the halves parallel to the previous cut, such that the dentin layer could be seen without completely removing the enamel on the tooth. This allowed imaging of the enamel surfaces after the mineralization experiment without the problem of surface reflection encountered in previous experiments, in addition to a more parallel surface from which to compare the brightness or whiteness results. The cut enamel side of the tooth sample was then sonicated in DI water and polished on diamond slurry smooth out the surface for imaging. The sample was then cut into quarters, with the lower half selected for a tetracycline experiment because of the even distribution of dentin coloring in the lower quarters of the tooth sample. The samples were then stained in 10 mg/mL tetracycline solution for five days.
During mineralization, using a 96-well plate, one of the stained halves was stored in […] Tris (24 mM) as a negative control, and the experimental sample was incubated in 150 μL shADP5 (0.8 mM) at 37° C. for 10 minutes. […]

[3] = Solution mineralization approach, color measurements with Chroma Meter; set-up: species or system human; details: peptide 10 min, calcium/phosphate ions 2 hours, 37° C.; 25 rounds
Source text: The root site of an extracted human tooth was removed and the crown portion of the tooth was sectioned vertically into half. A thin layer of enamel was removed from one half of the sectioned tooth such that the dentin layer is exposed without completely removing the enamel on the tooth. This allowed imaging of the enamel surfaces after the mineralization experiment without the problem of surface reflection, and provides a more parallel surface from which to compare the whiteness results. The sectioned tooth was fixed onto a glass slide with epoxy. Initial color measurements of each of the four sides of the sectioned tooth were obtained using a Minolta Chroma Meter CR-200 (Konica Minolta, Tokyo, Japan), according to manufacturer instructions, using a white background and a black background. The sectioned tooth was incubated in a mineralization polypeptide solution for 10 minutes at 37° C. and then in a solution with calcium ions and phosphate ions for 2 hours at 37° C. Color measurements of each of the four sides of the sample were taken as described initially. The sectioned was rinsed with deionized water and the remineralization process (incubation in polypeptide solution, incubation in solution of ion sources, and rinsing with deionized water) was repeated for a total of 25 rounds. The mineralization polypeptide was SYENSHSQAINVDRT (shADP5; SEQ ID NO:16).

[4] = In vitro re-mineralization of tea-stained rat tooth using the peptide solution; details: tea-stained rat tooth quarter; peptide 10 min 37° C., then CaCl2/KH2PO4 16 hours
Description: Rat teeth (molars) were obtained from sacrificed rats (for example, Sprague Dawley rats, age 3 weeks or older) from animal facility, collected, and stored in 100% alcohol. Prior to the re-mineralization experiments the teeth were stored in 1% bleach for 24 hours. […] The teeth were then dried in an incubator in air at 37° C. for 3-6 hours to produce dry surface. The root site and section the crown were removed vertically using a diamond blade. Pictures were taken with camera attached to optical microscope. Exposed dentine sites in the one half of the sectioned tooth were etched with 35% phosphoric acid (Ultraetch™) for 60 seconds (to facilitate the stain intake). The etching gel was removed by rinsing the sample with distilled water for 3 minutes. The staining solution was prepared by boiling 2 g of tea in 100 ml of deionized water for 5 minutes, and then cooled down to room temperature and filtered. The tooth sample was soaked in the staining solution and incubated at 37° C. at 150 rpm for 24 hours. The tooth was removed from the staining solution and sonicated for 30 seconds in deionized water (sonic bath) to remove the excess amount of tea particles attached to tooth extrinsically. The one half of the sectioned tooth was cut vertically into half again to form two quarter sections of the tooth. A second set of pictures were taken with camera attached to optical microscope. […]

Q: For “SYENSHSQAINVDRT [shADP5, 15-amino acid long amelogenin-derived peptide, shortened human ADP5]”, which “Hardness (Vicker's microhardness)” value ([1]; listed as Group 6 (shADP5)) is on record?
A: 140.6 +/− 11.3 HV10, MPa

Q: And the “Hardness (Vicker's microhardness)” value ([1]; listed as group 6)?
A: 140.6+11.3 HV10, MPa

Q: What about the “whiteness of the stained tooth” value [2] of the same sequence?
A: improves with repeated rounds of remineralization

Q: What about the “whiteness of the tooth enamel” value [3] of the same sequence?
A: improved with each round of remineralization

Q: And the “tooth color compared with control” value [4]?
A: lighter in color than the control
